Literature values in US20060200870A1, “Methods of treating muscular dystrophy” (priority 2004, published 2006).
“Also recorded” adds a separate entry of the source.

Key:
[1] = system: derangements or deficiencies in AGAT activity; details: oral creatine
[2] = system: humans with DMD; details: humans (males) with DMD
[3] = system: mdx mice
[4] = system: patients with DMD; details: 0.75 mg/kg in intermittent regimens

For `CN(CC(=O)O)C(=N)N` [creatine], the “success in overcoming derangements or deficiencies in AGAT activity” value [1] is given as “partially successful”, the “benefit / therapeutic effect of oral creatine supplementation” value [2] is given as “no such clear benefit; also recorded: has not been shown to have a significant therapeutic effect” and the “benefit of oral creatine supplementation” value [3] is given as “some benefits”.
For `C[C@]12C=CC(=O)C=C1CC[C@@H]1[C@@H]2C(=O)C[C@@]2(C)[C@H]1CC[C@]2(O)C(=O)CO` [prednisone], the independent ambulation ([4]; some patients) is listed as “can help prolong independent ambulation” and the adverse side-effects ([4]; weight-gain, osteopenia, hirsutism, cushingoid facies, behavioral and endocrinology-related issues) is listed as “significant adverse side-effects”.
